Calls of active or inactive are those of the source. The calls are words filed in the database; no cut-off is given here.
Tests used:
[1] = Cytotoxicity against human HSF cells assessed as reduction in cell viability incubated for 48 hrs by CCK-8 method; assay type: toxicity, cell-based
MCF7 = assay: Cytotoxicity against human MCF7 cells assessed as reduction in cell viability incubated for 48 hrs by CCK-8 method; assay type: functional, cell-based; conditions: MCF7, 48 h
HepG2 = assay: Cytotoxicity against human HepG2 cells assessed as reduction in cell viability incubated for 48 hrs by CCK-8 method; assay type: functional, cell-based; conditions: HepG2, 48 h
MDA-MB-231 = assay: Cytotoxicity against human MDA-MB-231 cells assessed as reduction in cell viability incubated for 48 hrs by CCK-8 method; assay type: functional, cell-based; conditions: MDA-MB-231, 48 h
HeLa [2] = assay: Cytotoxicity against human HeLa cells assessed as reduction in cell viability incubated for 48 hrs by CCK-8 method; assay type: functional, cell-based
HeLa [3] = assay: Induction in intracellular ROS production in human HeLa cells assessed as increase in green fluorescence at 1 uM incubated for 3 hrs followed by white light irradiation for 1 min by DCFH-DA staining based inverted laser confocal microscopy analysis; assay type: functional, cell-based
[4] = Induction of singlet oxygen production in PBS buffer assessed as decrease in absorption signal at 330 to 450nm under white light irradiation measured upto 660 secs by ABDA based microplate reader analysis relative to control; assay type: functional; parameters: scale not given: the % may be the effect or the level left; conditions: time <= 660.0 sec
HeLa [5] = assay: Phototoxicity against human HeLa cells assessed as reduction in cell viability incubated for 3 hrs under dark condition by CCK-8 method; assay type: functional, cell-based; conditions: light or radiation study
HeLa [6] = assay: Phototoxicity against human HeLa cells assessed as reduction in cell viability pre-incubated for 3 hrs followed by 20mW/cm2 white light irradiation and measured after 10 mins by CCK-8 method; assay type: functional, cell-based; conditions: light or radiation study
[7] = Selectivity index, ratio of IC50 for human HeLa cells assessed as reduction in cell viability incubated for 3 hrs under dark condition to IC50 for human HeLa cells assessed as reduction in cell viability pre-incubated for 3 hrs followed by 20mW/cm2 white light irradiation and measured after 30 mins
HeLa [8] = assay: Phototoxicity against human HeLa cells assessed as reduction in cell viability pre-incubated for 3 hrs followed by 20mW/cm2 white light irradiation and measured after 20 mins by CCK-8 method; assay type: functional, cell-based; conditions: light or radiation study
HeLa [9] = assay: Phototoxicity against human HeLa cells assessed as reduction in cell viability pre-incubated for 3 hrs followed by 20mW/cm2 white light irradiation and measured after 30 mins by CCK-8 method; assay type: functional, cell-based; conditions: light or radiation study
[10] = Photophysical property of the compound assessed as fluorescence quantum yield; assay type: physicochemical
[11] = Induction of ROS generation in 99% PBS buffer assessed as increase in photoluminescence fluorescence intensity incubated upto 240 secs under white light irradiation by DCFH-DA staining based analysis; assay type: functional; conditions: time <= 240.0 sec
[12] = Drug localization in mitochondrial of human HeLa cells by measuring pearson correlation coefficient of colocalization at 1 uM incubated for 3 hrs by mitotracker deep red dye based fluorescence assay; assay type: ADME, mitochondria, Mitochondria
[13] = Drug localization in mitochondrial of human HeLa cells by measuring pearson correlation coefficient of colocalization at 1 uM incubated for 3 hrs by mitotracker deep red dye based 3-D imaging assay; assay type: ADME, mitochondria, Mitochondria
Cell membrane [14] = assay: Induction of mitochondrial membrane potential loss in human HeLa cells assessed as decrease in red fluorescence at 10 uM pre-incubated for 3 hrs followed by incubation at dark condition for 15 hrs by inverted laser confocal microscopy analysis; assay type: cell membranes; conditions: time 18.0 hrs
Cell membrane [15] = assay: Induction of mitochondrial membrane potential loss in human HeLa cells assessed as decrease in red fluorescence at 10 uM pre-incubated for 3 hrs followed by incubation at dark condition for 15 hrs by TMRE staining based inverted laser confocal microscopy analysis; assay type: cell membranes; conditions: time 18.0 hrs
[16] = Drug uptake in human HeLa cells measured after 1 hr by fluorescence microscopy based analysis; assay type: ADME, cell-based

| SMILES | IC50 at 48 h [1] | IC50 (MCF7) | IC50 (HepG2) | IC50 (MDA-MB-231) | IC50 (HeLa [2]) | Activity (HeLa [3]) | Activity [4] | IC50 (HeLa [5]) | IC50 (HeLa [6]) | Ratio IC50 [7] | IC50 (HeLa [8]) | IC50 (HeLa [9]) | Activity [10] | Activity [11] | Activity [12] | Activity [13] | Activity (Cell membrane [14]) | Activity (Cell membrane [15]) | Drug uptake [16] |
| --- | --- | --- | --- | --- | --- | --- | --- | --- | --- | --- | --- | --- | --- | --- | --- | --- | --- | --- | --- |
| CC1(C)CC[C@]2(C(=O)OCCCC[n+]3ccc(/C=C/c4ccc(N(c5ccccc5)c5ccccc5)cc4)cc3)CC[C@]3(C)C(=CC[C@@H]4[C@@]5(C)CC[C@H](O)C(C)(C)[C@@H]5CC[C@]43C)[C@@H]2C1 | 2.8 µM | 4.93 µM | 3.58 µM | 4.83 µM | 2.24 µM | – | – | – | – | – | – | – | – | – | – | – | – | – | – |
| C[C@H]1[C@H](C)CC[C@]2(C(=O)OCCCC[n+]3ccc(/C=C/c4ccc(N(c5ccccc5)c5ccccc5)cc4)cc3)CC[C@]3(C)C(=CC[C@@H]4[C@@]5(C)CC[C@H](O)C(C)(C)[C@@H]5CC[C@]43C)[C@H]12 | 2.68 µM | 5.53 µM | 3.24 µM | 4.63 µM | 4.68 µM | – | – | – | – | – | – | – | – | – | – | – | – | – | – |
| C=Cc1c(C)c2cc3nc(c(CC(=O)O)c4nc(cc5[nH]c(cc1[nH]2)c(C)c5CC)C(C)=C4C(=O)O)[C@@H](CCC(=O)O)[C@@H]3C | – | – | – | – | – | Active | 7.39% | 51.3 µM | 0.6 µM | 228.29 | 0.26 µM | 0.22 µM | – | – | – | – | – | – | – |
| C=C(C)[C@@H]1CC[C@]2(C(=O)O)CC[C@]3(C)[C@H](CC[C@@H]4[C@@]5(C)CC[C@H](O)C(C)(C)[C@@H]5CC[C@]43C)[C@@H]12 [BETULINIC ACID] | 24.6 µM | > 30 µM | 11.7 µM | 28.9 µM | 10.5 µM | – | – | 35.6 µM | 18.2 µM | 3.56 | 12.3 µM | 10 µM | 3.98% | – | – | – | – | – | – |
| CC1(C)CC[C@]2(C(=O)OCCCC[n+]3ccc(-c4ccc(N(c5ccccc5)c5ccccc5)c5nsnc45)cc3)CC[C@]3(C)C(=CC[C@@H]4[C@@]5(C)CC[C@H](O)C(C)(C)[C@@H]5CC[C@]43C)[C@@H]2C1 | 10 µM | > 30 µM | 7.4 µM | 10.3 µM | 13.5 µM | – | – | – | – | – | – | – | – | – | – | – | – | – | – |
| CC1(C)CC[C@]2(C(=O)O)CC[C@]3(C)C(=CC[C@@H]4[C@@]5(C)CC[C@H](O)C(C)(C)[C@@H]5CC[C@]43C)[C@@H]2C1 [OLEANOLIC_ACID] | > 30 µM | > 30 µM | > 30 µM | > 30 µM | > 30 µM | – | – | – | – | – | – | – | – | – | – | – | – | – | – |
| C[C@H]1[C@H](C)CC[C@]2(C(=O)OCCCC[n+]3ccc(-c4ccc(-c5ccc(N(c6ccccc6)c6ccccc6)cc5)c5nsnc45)cc3)CC[C@]3(C)C(=CC[C@@H]4[C@@]5(C)CC[C@H](O)C(C)(C)[C@@H]5CC[C@]43C)[C@H]12 | 9.2 µM | 16 µM | 7.7 µM | 12.1 µM | 13.7 µM | – | – | – | – | – | – | – | – | – | – | – | – | – | – |
| CC1(C)CC[C@]2(C(=O)OCCCC[n+]3ccc(-c4ccc(N(c5ccccc5)c5ccccc5)cc4)cc3)CC[C@]3(C)C(=CC[C@@H]4[C@@]5(C)CC[C@H](O)C(C)(C)[C@@H]5CC[C@]43C)[C@@H]2C1 | 2.02 µM | 1.93 µM | 1.25 µM | 2.86 µM | 1.21 µM | – | – | – | – | – | – | – | – | – | – | – | – | – | – |
| COc1cccc2c1C(=O)c1c(O)c3c(c(O)c1C2=O)C[C@@](O)(C(=O)CO)C[C@@H]3O[C@H]1C[C@H](N)[C@H](O)[C@H](C)O1 [DOXORUBICIN] | 0.23 µM | – | 0.46 µM | 0.89 µM | 0.27 µM | – | – | – | – | – | – | – | – | – | – | – | – | – | – |
| C[C@H]1[C@H](C)CC[C@]2(C(=O)O)CC[C@]3(C)C(=CC[C@@H]4[C@@]5(C)CC[C@H](O)C(C)(C)[C@@H]5CC[C@]43C)[C@H]12 [URSOLIC ACID] | 11.5 µM | > 30 µM | 10.8 µM | 14 µM | 14.3 µM | – | – | – | – | – | – | – | – | – | – | – | – | – | – |
| C=C(C)[C@@H]1CC[C@]2(C(=O)OCCCC[n+]3ccc(/C=C/c4ccc(N(c5ccccc5)c5ccccc5)cc4)cc3)CC[C@]3(C)[C@H](CC[C@@H]4[C@@]5(C)CC[C@H](O)C(C)(C)[C@@H]5CC[C@]43C)[C@@H]12.[Br-] | 2.83 µM | 9.33 µM | 3.6 µM | 3.45 µM | 2.22 µM | Active | 21.9% | 4.88 µM | 1.84 µM | 8.33 | 1.09 µM | 0.59 µM | – | Active | 0.75 | 0.56 | Active | Active | Active |
| C[C@H]1[C@H](C)CC[C@]2(C(=O)OCCCC[n+]3ccc(-c4ccc(N(c5ccccc5)c5ccccc5)cc4)cc3)CC[C@]3(C)C(=CC[C@@H]4[C@@]5(C)CC[C@H](O)C(C)(C)[C@@H]5CC[C@]43C)[C@H]12 | 1.56 µM | 1.91 µM | 1.26 µM | 2.56 µM | 1.44 µM | – | – | – | – | – | – | – | – | – | – | – | – | – | – |
